Reference: paper PMC11172314, “Towards Enhanced Tunability of Aqueous Biphasic Systems: Furthering the Grasp of Fluorinated Ionic Liquids in the Purification of Proteins” (International Journal of Molecular Sciences, 2024)

What was measured:
Parameters in all cases: species or system chicken
[1] = biological target: T1, FITC-Lys (lysozyme) (Gallus gallus, UniProt P00698); experiment: Microscale thermophoresis (MST) binding of ABS phase-forming components to FITC-labeled lysozyme; conditions: FITC-Lys 0.41 μM, 25 °C; max. conc. (first capillary) in monomer range: below 1st CAC for FILs, ]0, 100] mM for non-aggregating ligands
T1 construct: Lyophilized lysozyme from chicken egg white, ≥90% purity; purchased Millipore (Darmstadt, Germany); host or cells: chicken egg white (natural source)
T1 sequence (P00698 19-147): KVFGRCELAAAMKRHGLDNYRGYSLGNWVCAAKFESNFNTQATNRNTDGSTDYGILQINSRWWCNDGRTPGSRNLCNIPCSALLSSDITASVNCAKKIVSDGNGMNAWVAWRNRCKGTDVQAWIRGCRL
Experimental: Usually, in the labeling process, the position of dye is statistically distributed, and one amine per protein is labeled. […] The four ABS phase-forming components, [ N1112(OH) ][H2PO4] […] (FILs), and [C4C1Im][CF3SO3] […] In each run of MST, a maximum concentration of ligand was selected and consecutively diluted in sixteen capillaries.
Binding studies were conducted through microscale thermophoresis measurements of dye-labeled lysozyme. […] MST tests were conducted in a monolith NT.115 (blue/red) in accordance with the Nano Temper Technologies methodology. Medium MST power and 20% LED power (nano-blue) were set as the instrument’s default settings. For each and every MST measurement, PBS buffer was used. […] For each ligand, a series of 16 1:1 dilutions was prepared using the same buffer, varying the starting ligand concentration from 15 to 400 mM. MST traces were recorded using the standard parameters: 5 s MST power off, 30 s MST power on, and 5 s MST power off. Three independently conducted pipetted experiments’ data were examined using NanoTemper Technologies’ MO. Affinity Analysis program, version 2.3.

[2] = biological target: T2, lysozyme (Lys) (Gallus gallus, UniProt P00698); experiment: Turbidimetry (transmittance) of lysozyme solutions; conditions: 0.2 mg/mL Lys, IL 0.1–120 mM, 25 °C
T2 construct: Lyophilized lysozyme from chicken egg white, ≥90% purity; purchased Millipore (Darmstadt, Germany); host or cells: chicken egg white (natural source)
T2 sequence (P00698 19-147): as above
Description: Monitoring the changes in turbidity offers an insight into the protein–ionic liquid aqueous solution interactions, which allows for the assessment of the ionic liquid functionalization of the fluorinated IL vs. the mere fluoro-contaning IL ([C2C1Im][C4F9SO3] vs. [C4C1Im][CF3SO3]). […] In opposition, [C2C1Im][C4F9SO3] […] The results of Rather et al. also confirmed the significant composition and concentration dependence of the lysozyme–surfactant IL interactions, mainly in the CAC concentration regime. Additionally, an increase in turbidity is observed for both [C4C1Im][CF3SO3] and [C2C1Im][C4F9SO3] at concentrations below the first CAC of the FIL (only monomers exist in solution for both ionic liquids) in comparison with lysozyme in water (snapshots in Figure 7A,B). […]
Both turbidimetry and UV-Vis absorbance assays were carried out at 25 °C on a double-beam UV6300PL UV-Vis spectrophotometer (VWR, Leuven, Belgium) with a pair of 10 mm path length quartz cuvettes of 400 µL sample volume. […] For absorbance measurements, all spectra were acquired with 190 to 400 nm wavelength range. […] Aqueous solutions of [C4C1Im][CF3SO3] and [C2C1Im][C4F9SO3] were analyzed with concentrations varying from 0.1 to 120 mM.

[3] = biological target: T2, lysozyme (Lys); experiment: DSC thermal stability (Tm, ΔH) of lysozyme in water, component solutions and ABS phases; conditions: 1.0 mg/mL Lys
Description: Differential scanning calorimetry (DSC) measurements (Section 3) were used to determine the melting temperature ( Tm ) and enthalpy ( Δ H) of lysozyme, at which both the folded and unfolded states coexist at equilibrium. DSC outputs, thermal transitions at the nanoscale level, allow to analyze alterations on proteins structure and stability, providing sharp perceptions of the factors affecting stability, as well as of the folding and unfolding processes. […] (DSC curve depicted in Figure S16 of Supplementary Materials).
FIL (BP#8, BP#10, BP#11, and BP#12). […] For the system based on [C4C1Im][CF3SO3]
The thermal stability of lysozyme was analyzed in water, ABS phase-forming compounds aqueous solutions, and partition ABS phases. […] Partition lysozyme on each phase from the prepared biphasic points as well as recovered protein from the FIL-rich phase were also addressed for a selection of studied systems listed in Table 1. We acquired thermograms using a TA^TM Nano DSC from TA Instruments. All scans were conducted in a 300 μ L capillary cell through a temperature ramp from 20 to 90 °C at a heating rate of 1 °C/min and 3 atm pressure. All samples were degassed for 7 min at 20 °C, with the exception of FIL-containing samples owing to their surfactant properties. After subtracting the polynomial fit baselines, raw thermogram curve data were fitted with the TwoStateScaled model using NanoAnalyze TA Instruments software, version 3.12, to determine the protein thermal transition temperatures in each sample. During nanoDSC scans, Δ H and Δ S were obtained and utilized to determine Δ G ( Δ G = Δ H − T Δ S).

[4] = biological target: T2, lysozyme (Lys); experiment: Intrinsic (tryptophan) fluorescence of lysozyme; conditions: 0.2 mg/mL Lys, excitation 295 nm, component 0.1–800 mM, 25 °C
Description: (FIL), [C4C1Im][CF3SO3] (mere fluoro-containing IL), and [ N1112(OH) ][H2PO4] (globular protein stabilizer). […] Even though large changes in protein conformation can modify the intensity of tyrosine and phenylalanine fluorescence signals, their low extinction coefficients and quantum yields, as well as their relative lower sensitivity to environmental changes, make them a less appealing candidate. Tryptophan is frequently found concealed in the hydrophobic core of proteins due to its aromatic nature. […] The tryptophan release energy is particularly sensitive to the polarity (and dynamics) of the environment because the excited-state dipole moment is quite large. Reactions to denaturation, substrate binding, subunit association, and conformational transitions create variations in the tryptophan emission spectra. The spectrum shift generally known as blue shift, a shift of the maximum emission towards smaller wavelengths, denotes that the aromatic residue is buried in the native structure of the protein [67]. […] Furthermore, the amount of exposure of the fluorophores to the solvent is associated with the increase or decrease in the intensity of the emission spectrum. […] [C4C1Im][CF3SO3] and [ N1112(OH) ][H2PO4] […] Variations in lysozyme spectra are caused by ligand-induced changes in the microenvironment of tryptophan residues, either by shifting the maximum peak wavelength (blue or red shift) or by altering peak intensities. These changes can be used as a measure of the effect of the ABS phase-forming components on protein folding and unfolding.
Intrinsic fluorescence spectroscopy measurements of lysozyme’s tryptophan residues were carried out on a Spex Horiba Jobyin Yvon spectrofluorometer (HORIBA Jobin Yvon, France) using a 10 mm path length quartz cuvette. […] The excitation and emission slit widths of 2 nm were used for all the measurements. Maximum fluorescence values were attained as the average of three measurements.

## CCCCn1cc[n+](C)c1.O=S(=O)([O-])C(F)(F)F [[C4C1Im][CF3SO3]]
[1]
  Kd: no binding detected
[2]
  Turbidity (transmittance) of Lys solution with increasing IL concentration: steady turbidity profile
[3]; 0.1 mM component in water
  Lys Tm: 74.50 °C
  Lys ∆H: 105.5 kcal/mol
[3]; 1 mM component in water
  Lys Tm: 75.54 °C
  Lys ∆H: 104.7 kcal/mol
[3]; 5 mM component in water
  Lys Tm: 74.64 °C
  Lys ∆H: 96.7 kcal/mol
[3]; 10 mM component in water
  Lys Tm: 74.16 °C
  Lys ∆H: 94.55 kcal/mol
[4]
  Lys fluorescence emission intensity with increasing component concentration: increase in Lys fluorescence emission intensity
  Lys maximum emission wavelength with increasing component concentration: red shift from 334 nm to 368 nm
